Patent publication US5206135A, “Use of the oxygenase activity of acetolactate synthase for herbicide detection” (E. I. Du Pont de Nemours and Company, priority 1990, dated 1993)

Experiments:
Format in all cases: biochemical
[1] = molecular target: T1, acetolactate synthase (Escherichia coli, UniProt P0DP90); experiment: Oxygenase activity of acetolactate synthase with different substrates (oxygen-sensitive electrode)
T1 sequence (P0DP90 1-548): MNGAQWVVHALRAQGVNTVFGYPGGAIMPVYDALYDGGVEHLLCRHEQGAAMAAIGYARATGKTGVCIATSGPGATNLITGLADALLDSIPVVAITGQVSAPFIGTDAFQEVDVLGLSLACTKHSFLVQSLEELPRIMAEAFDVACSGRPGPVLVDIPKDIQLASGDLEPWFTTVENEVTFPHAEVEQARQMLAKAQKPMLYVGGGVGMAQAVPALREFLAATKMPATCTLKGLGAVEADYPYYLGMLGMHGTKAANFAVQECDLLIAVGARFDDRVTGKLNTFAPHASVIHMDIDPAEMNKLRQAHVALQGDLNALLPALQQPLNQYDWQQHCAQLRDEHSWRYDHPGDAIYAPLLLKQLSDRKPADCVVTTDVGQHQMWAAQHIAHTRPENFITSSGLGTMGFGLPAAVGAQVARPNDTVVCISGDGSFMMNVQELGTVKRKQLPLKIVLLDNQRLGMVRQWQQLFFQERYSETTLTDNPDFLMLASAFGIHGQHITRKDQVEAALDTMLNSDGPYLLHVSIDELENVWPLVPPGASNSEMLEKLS
T1 sequence (P0ADG1 1-87 partner): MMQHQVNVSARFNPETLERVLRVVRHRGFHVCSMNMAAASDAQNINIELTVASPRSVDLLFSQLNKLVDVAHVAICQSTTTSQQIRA
Method: (§1) To a 1 ml solution containing 0.1 M tricine-NaOH, pH 8, 10 mM MgCl2, 0.1 mM thiamine pyrophosphate, and 0.1 mM flavin adenine dinucleotide were added various concentrations of pyruvate (10 μM to 10 mM), α-keto-butyrate (10 μM to 80 mM), or acetolactate (0.15 to 5.5 mM). After allowing the solution to equilibrate with air (21 % O2), the level of dissolved oxygen was monitored by use of a commercially available oxygen-sensitive electrode (Hansatech) and polarographic electronics as described by Sweet et al. (Analytical Biochemistry 107:337 (1980)). In the absence of further additions, negligible oxygen was consumed over a 30 minute period. To initiate the consumption of oxygen, 20 μl of a 2 mg/ml stock solution of acetolactate synthase was added if pyruvate or α-acetolactate were used as substrate, or 5 μl of a 49 mg/ml stock solution of acetolactate synthase was added if α-ketobutyrate was used as substrate. The limiting rate of oxygen consumption at saturating concentrations of pyruvate, α-ketobutyrate, or α-acetolactate are illustrated in Table 1. The concentrations of α-acetolactate or α-ketobutyrate that gave half of the maximum rate (the Michaelis constant) were 1.4 mM and 32 μM, respectively.

[2] = molecular target: T1, acetolactate synthase; experiment: Sensitivity of the oxygenase activity of acetolactate synthase to herbicides (oxygen-sensitive electrode); conditions: 100 μM pyruvate as substrate; rate of oxygen consumption; pH 8; read-out: Concentration that Gives 50% Inhibition
Method: as §1, with “The concentrations of α-acetolactate or α-ketobutyrate that gave half of the maximum rate (the Michaelis constant) were 1.4 mM and 32 μM, respectively.” left out
Assays were conducted as described under Examples 1-3, except that 100 μM pyruvate was used as substrate. […] These values are similar to previously reported values (Schloss et al. Nature 331:360 (1988)) for inhibition of the enzyme monitored by use of the known acetolactate-forming reaction.

[3] = substrate: CC(=O)C(C)(O)C(=O)O; experiment: Oxygenase activity of acetolactate synthase with different substrates (oxygen-sensitive electrode); conditions: other: oxygen consumption, pH 8, air-equilibrated
Method: as §1

[4] = substrate: CCC(=O)C(=O)O; experiment: as above; conditions: other: oxygen consumption, pH 8, air-equilibrated
Method: as §1

With `CC(=O)C(=O)O` [Pyruvate] the Km ([1]; oxygen consumption, pH 8, air-equilibrated, read-out: Concentration that gave half of the maximum rate (the Michaelis constant)) was less than 10 µM.

`COC(=O)c1ccccc1S(=O)(=O)NC(=O)Nc1nc(C)cc(C)n1` [sulfometuron methyl] showed an IC50 [2] of 1000 nM.

`COc1nc(C)nc(NC(=O)NS(=O)(=O)c2ccccc2Cl)n1` [chlorsulfuron] gave an IC50 [2] of 500 nM.

In the case of `CC(=O)C(C)(O)C(=O)O` (stereo not drawn) [α-Acetolactate], the “Maximum rate (μmoles of oxygen consumed/mg enzyme/min)” value ([1]; limiting rate of oxygen consumption at saturating substrate, 0.1 M tricine-NaOH pH 8, air-equilibrated (21 % O2)) is reported as 0.20 μmoles of oxygen consumed/mg e.

B1: acetolactate synthase (Escherichia coli K-12) (protein)
chain: T1 sequence (P0DP90 1-548)
With B1 the Km [3] was 1.4 mM and the Km [4] was 32 µM.
